Measurements taken from patent US20090215893A1, “Parakeratosis inhibitor, pore-shrinking agent,or rough skin preventing/ameliorating agent, and external composition for skin” (Shiseido Company Ltd, priority 2005, published 2009).

What was measured:
[1] = test system: back of a hairless mouse (HR-1), 10 mass % oleic acid applied; test: Parakeratosis-inhibiting effect tests: oleic acid applied to hairless mouse back, macroscopic rough skin evaluation and parakeratosis value; assay type: in vivo; details: for Macroscopic evaluation (average of four animals): 100 μL after oleic acid, three days, rough skin score 0.0 (no redness) to 2.0 (control); for Parakeratosis value (average of four animals): tape-stripped stratum corneum, hematoxylin, range 1.0 to 3.0, higher = parakeratosis advanced, control 2.0; for parakeratosis value / parakeratosis-inhibiting effect / rough skin preventing effect, based on stratum corneum peeling and redness: summary of Table 1, concentrations as in Table 1
Protocol: Aqueous solutions (containing 30 mass % of ethanol) of primarily 3 mass % of an α-amino acid derivative or salt thereof were prepared as the evaluation sample. The pH was regulated by hydrochloric acid or sodium hydroxide so as to be 7.0 to 7.5. When sample solubility was low, the solution was prepared accordingly.
100 μL of 10 mass % oleic acid solution (solvent: ethanol) were applied to the back of a hairless mouse (HR-1; Hoshino Laboratory Animals). Then the sample solution (α-amino acid derivative, and the like) was applied 100 μL at a time. This procedure was continued for three days. […] The status of the skin was evaluated in 0.25-point intervals, with skin where the control (control aqueous solution) had been applied being 2.0 and skin where there was no redness being 0.0. At the same time, the stratum corneum at the back of the hairless mouse was peeled off with tape, the nuclei were stained by hematoxylin, and the degree of parakeratosis was observed and evaluated by a parakeratosis value within a range of 1.0 to 3.0 (in 0.25 increments).

[2] = test system: pores of the cheeks of healthy human males; test: Human pore-shrinking effect (replica assessment of cheek pores); assay type: in vivo; details: for Replica assessment (average of n = 5): twice a day for one month, pore size rating 1-13, after application minus before application, control 0.3; for pore-shrinking effect: summary of Table 2, concentrations as in Table 2
Protocol: An experiment was conducted whereby a sample was applied twice a day for one month to the cheeks of healthy human males in groups of 5 men each. Aqueous solutions (containing 15 mass % of ethanol) of 3 mass % of the α-amino acid derivative or a salt thereof were prepared as the evaluation sample. The pH was regulated by hydrochloric acid or sodium hydroxide so as to be 7.0 to 7.5. When sample solubility was low, the solution was prepared accordingly. The control was an aqueous 15% ethanol solution. The sample aqueous solution and control aqueous solution were applied to one half of the face at a time.
A replica was collected before and after continuous application, and changes in the shape of the pores at the same site were observed using a three-dimensional laser scanning microscope. The size of the pores was macroscopically evaluated in 13 steps of 1 through 13 (with the pores becoming larger as the numbers became larger), the difference in the ratings before and after application (after application-before application) was calculated, and the efficacy of each sample was studied using this difference as the replica assessment.

[3] = test system: back of hairless mice (HR-1), 10 mass % oleic acid applied; test: Inhibiting effect against rough skin induced by oleic acid application (transepidermal water loss); assay type: in vivo; set-up: ΔTEWL value: unit not given here; details: for ΔTEWL value: three days, average of four animals, rough skin worse as value increases, control 12.0; for ΔTEWL value compared with the control aqueous solution / rough skin preventing/ameliorating effect: summary of Table 3, concentrations as in Table 3
Protocol: In order to investigate the inhibiting effect of α-amino acid derivatives and salts thereof against rough skin induced by oleic acid application, the transepidermal water loss (TEWL value) before and after application was measured, the difference was compared with the control (control aqueous solution), and the effect was determined. Sample preparation and the application method were in accordance with Example 1. The TEWL was determined using the TM210 TEWA Meter (Courage+Khazaka Electronic GmBH).
100 μL of 10 mass % oleic acid (solvent: ethanol) was applied to the back of hairless mice (HR-1, four mice per group). Then a sample solution (α-amino acid derivatives, and the like) was applied 100 μL at a time. This procedure was continued for three days. The following day, the TEWL value of the back was determined and the values of the four animals were averaged. Rough skin became worse as the ΔTEWL value increased.

[4] = test system: cheek of a panel of 20 women; test: Sensory irritation tests; assay type: in vivo, human; details: for Evaluation (sensory irritation, class of average rating): 1 mL on cheek, evaluated for ten minutes, 20 women; for sensory irritation: summary of Table 4, β-alanine at 3%
Protocol: 1 mL of a control aqueous solution and the sample aqueous solution prepared in Example 1 were applied using a cotton swab to the left or right cheek, respectively, of a panel of 20 women, the irritating sensation was evaluated every 30 seconds for ten minutes beginning immediately after application, and a final evaluation was reported. The evaluation of the irritating sensation was based on the following four steps of rating criteria, the average rating was calculated, and the average was classified by the following criteria.
3: Discontinued because of extremely strong irritation, such as stinging sensation, burning sensation, tickling sensation, itching, and the like.
2: Intolerable strong irritation, such as stinging sensation, burning sensation, tickling sensation, itching, and the like.
1: Tolerable with only slight stinging sensation, burning sensation, tickling sensation, itching, and the like.
0: Not particularly irritating.
A: average rating of less than 0.2
B: average rating of 0.2 to less than 1.0
C: average rating of 1.0 to less than 2.0
D: average rating of 2.0 or greater

SMILES | Macroscopic evaluation (average of four animals) ([1]; sample 3 mass %) | Parakeratosis value (average of four animals) ([1]; sample 3 mass %) | parakeratosis value / parakeratosis-inhibiting effect [1] | rough skin preventing effect, based on stratum corneum peeling and redness [1] | Replica assessment (average of n = 5) ([2]; sample 3 mass %) | pore-shrinking effect [2] | ΔTEWL value ([3]; sample 3 mass %) | ΔTEWL value compared with the control aqueous solution / rough skin preventing/ameliorating effect [3] | Evaluation (sensory irritation, class of average rating) ([4]; sample 3 mass %) | sensory irritation [4] | Macroscopic evaluation (average of four animals) ([1]; sample 1.5 mass %) | Parakeratosis value (average of four animals) ([1]; sample 1.5 mass %) | Replica assessment (average of n = 5) ([2]; sample 1.5 mass %) | ΔTEWL value ([3]; sample 1.5 mass %) | Evaluation (sensory irritation, class of average rating) ([4]; sample 1.5 mass %)
C[C@@H](NC(=O)OCc1ccccc1)C(=O)O [N-carbobenzoyloxy-D-alanine] | 1.2 | 1.1 | reduced | seen | −0.8 | seen | 7.1 | significantly lower | A (average rating of less than 0.2) | no problems | – | – | – | – | –
CCNC(CO)C(=O)O (racemic) [N-ethyl-DL-serine] | 1.5 | 1.5 | reduced | seen | −1.3 | seen | 7.8 | significantly lower | A (average rating of less than 0.2) | no problems | – | – | – | – | –
CC(NS(=O)(=O)c1ccccc1)C(=O)O (racemic) [N-benzenesulfonyl-DL-alanine] | – | – | reduced | seen | – | seen | – | significantly lower | – | no problems | 1.4 | 1.5 | −0.8 | 7.0 | A (average rating of less than 0.2)
CCN[C@H](CO)C(=O)O [N-ethyl-D-serine] | 1.3 | 1.3 | reduced | seen | −1.2 | seen | 7.9 | significantly lower | A (average rating of less than 0.2) | no problems | – | – | – | – | –
O=C(NC(CO)C(=O)O)OCc1ccccc1 (racemic) [N-carbobenzoyloxy-DL-serine] | 1.2 | 1.2 | reduced | seen | −1.3 | seen | 6.7 | significantly lower | A (average rating of less than 0.2) | no problems | – | – | – | – | –
CCN[C@@H](CO)C(=O)O [N-ethyl-L-serine] | 1.4 | 1.4 | reduced | seen | −1.2 | seen | 7.7 | significantly lower | A (average rating of less than 0.2) | no problems | – | – | – | – | –
O=C(N[C@@H](CO)C(=O)O)OCc1ccccc1 [N-carbobenzoyloxy-L-serine] | 1.2 | 1.1 | reduced | seen | −1.2 | seen | 6.7 | significantly lower | A (average rating of less than 0.2) | no problems | – | – | – | – | –
